Source: patent publication US10202361B2, “Pyridazinones as herbicides” (E I DU PONT DE NEMOURS AND COMPANY, priority 2014, dated 2019)

Legend:
Test in all cases: Test D pre-/postemergence controlled growth environment herbicide test
Type in all cases: in vivo
Settings in all cases: scale 0 to 100
[1] = test system: buckwheat, wild (wild buckwheat, Polygonum convolvulus)
Method in brief: (§1)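 Ratings come from visual comparison with untreated plants on a 0–100 scale, 0 meaning no effect. Test chemicals in surfactant-containing solvent were applied either to soil at planting (silt loam) or over foliage of 2–18 cm plants in peat-based medium, then held 14–21 d in a controlled growth environment.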

[2] = test system: speedwell (bird's-eye speedwell, Veronica persica)
Method in brief: as §1

[3] = test system: blackgrass (Alopecurus myosuroides)
Method in brief: as §1

[4] = test system: windgrass (Apera spica-venti)
Method in brief: as §1

[5] = test system: Russian thistle (Salsola kali)
Method in brief: as §1

Cc1cc(=O)n(-c2ccc(F)cc2)nc1Cc1ccnc(C(F)(F)F)c1 [Compound 1, 2-(4-fluorophenyl)-5-methyl-6-[[2-(trifluoromethyl)-4-pyridinyl]methyl]-3(2H)-pyridazinone]
Plant response rating ([1]; Postemergence, 31 g ai/ha): 20 | Plant response rating ([1]; Postemergence, 62 g ai/ha): 20 | Plant response rating ([1]; Postemergence, 125 g ai/ha): 30 | Plant response rating ([1]; Postemergence, 250 g ai/ha): 40 | Plant response rating ([1]; Postemergence, 500 g ai/ha): 60 | Plant response rating ([1]; Preemergence, 31 g ai/ha): 0 | Plant response rating ([1]; Preemergence, 62 g ai/ha): 40 | Plant response rating ([1]; Preemergence, 125 g ai/ha): 70 | Plant response rating ([1]; Preemergence, 250 g ai/ha): 70 | Plant response rating ([1]; Preemergence, 500 g ai/ha): 70 | Plant response rating ([2]; Postemergence, 31 g ai/ha): 30 | Plant response rating ([2]; Postemergence, 62 g ai/ha): 80 | Plant response rating ([2]; Postemergence, 125 g ai/ha): 100 | Plant response rating ([2]; Postemergence, 250 g ai/ha): 40 | Plant response rating ([2]; Postemergence, 500 g ai/ha): 100 | Plant response rating ([2]; Preemergence, 31 g ai/ha): 100 | Plant response rating ([2]; Preemergence, 62 g ai/ha): 100 | Plant response rating ([2]; Preemergence, 125 g ai/ha): 100 | Plant response rating ([2]; Preemergence, 250 g ai/ha): 100 | Plant response rating ([2]; Preemergence, 500 g ai/ha): 100 | Plant response rating ([3]; Postemergence, 31 g ai/ha): 0 | Plant response rating ([3]; Postemergence, 62 g ai/ha): 10 | Plant response rating ([3]; Postemergence, 125 g ai/ha): 10 | Plant response rating ([3]; Postemergence, 250 g ai/ha): 20 | Plant response rating ([3]; Postemergence, 500 g ai/ha): 20 | Plant response rating ([3]; Preemergence, 31 g ai/ha): 0 | Plant response rating ([3]; Preemergence, 62 g ai/ha): 0 | Plant response rating ([3]; Preemergence, 125 g ai/ha): 20 | Plant response rating ([3]; Preemergence, 250 g ai/ha): 40 | Plant response rating ([3]; Preemergence, 500 g ai/ha): 75 | Plant response rating ([4]; Postemergence, 31 g ai/ha): 20 | Plant response rating ([4]; Postemergence, 62 g ai/ha): 20 | Plant response rating ([4]; Postemergence, 125 g ai/ha): 20 | Plant response rating ([4]; Postemergence, 250 g ai/ha): 20 | Plant response rating ([4]; Postemergence, 500 g ai/ha): 20 | Plant response rating ([4]; Preemergence, 31 g ai/ha): 0 | Plant response rating ([4]; Preemergence, 62 g ai/ha): 20 | Plant response rating ([4]; Preemergence, 125 g ai/ha): 100 | Plant response rating ([4]; Preemergence, 250 g ai/ha): 100 | Plant response rating ([4]; Preemergence, 500 g ai/ha): 100 | Plant response rating ([5]; Postemergence, 62 g ai/ha): 20 | Plant response rating ([5]; Postemergence, 250 g ai/ha): 50 | Plant response rating ([5]; Preemergence, 62 g ai/ha): 20 | Plant response rating ([5]; Preemergence, 125 g ai/ha): 100 | Plant response rating ([5]; Preemergence, 250 g ai/ha): 100 | Plant response rating ([5]; Preemergence, 500 g ai/ha): 100

Cc1cc(=O)n(-c2ccc(C(F)(F)F)cc2)nc1Cc1ccnc(C(F)(F)F)c1 [Compound 2, 5-methyl-2-[4-(trifluoromethyl)phenyl]-6-[[2-(trifluoromethyl)-4-pyridinyl]methyl]-3(2H)-pyridazinone]
Plant response rating ([1]; Postemergence, 31 g ai/ha): 20 | Plant response rating ([1]; Postemergence, 62 g ai/ha): 30 | Plant response rating ([1]; Postemergence, 125 g ai/ha): 50 | Plant response rating ([1]; Postemergence, 250 g ai/ha): 70 | Plant response rating ([1]; Postemergence, 500 g ai/ha): 80 | Plant response rating ([1]; Preemergence, 31 g ai/ha): 0 | Plant response rating ([1]; Preemergence, 62 g ai/ha): 20 | Plant response rating ([1]; Preemergence, 125 g ai/ha): 25 | Plant response rating ([1]; Preemergence, 250 g ai/ha): 100 | Plant response rating ([1]; Preemergence, 500 g ai/ha): 100 | Plant response rating ([2]; Postemergence, 31 g ai/ha): 100 | Plant response rating ([2]; Postemergence, 62 g ai/ha): 100 | Plant response rating ([2]; Postemergence, 125 g ai/ha): 100 | Plant response rating ([2]; Postemergence, 250 g ai/ha): 100 | Plant response rating ([2]; Postemergence, 500 g ai/ha): 100 | Plant response rating ([2]; Preemergence, 31 g ai/ha): 100 | Plant response rating ([2]; Preemergence, 62 g ai/ha): 100 | Plant response rating ([2]; Preemergence, 125 g ai/ha): 100 | Plant response rating ([2]; Preemergence, 250 g ai/ha): 100 | Plant response rating ([2]; Preemergence, 500 g ai/ha): 100 | Plant response rating ([3]; Postemergence, 31 g ai/ha): 5 | Plant response rating ([3]; Postemergence, 62 g ai/ha): 15 | Plant response rating ([3]; Postemergence, 125 g ai/ha): 20 | Plant response rating ([3]; Postemergence, 250 g ai/ha): 30 | Plant response rating ([3]; Postemergence, 500 g ai/ha): 50 | Plant response rating ([3]; Preemergence, 31 g ai/ha): 5 | Plant response rating ([3]; Preemergence, 62 g ai/ha): 20 | Plant response rating ([3]; Preemergence, 125 g ai/ha): 60 | Plant response rating ([3]; Preemergence, 250 g ai/ha): 60 | Plant response rating ([3]; Preemergence, 500 g ai/ha): 80 | Plant response rating ([4]; Postemergence, 31 g ai/ha): 10 | Plant response rating ([4]; Postemergence, 62 g ai/ha): 15 | Plant response rating ([4]; Postemergence, 125 g ai/ha): 20 | Plant response rating ([4]; Postemergence, 250 g ai/ha): 25 | Plant response rating ([4]; Postemergence, 500 g ai/ha): 35 | Plant response rating ([4]; Preemergence, 31 g ai/ha): 20 | Plant response rating ([4]; Preemergence, 62 g ai/ha): 50 | Plant response rating ([4]; Preemergence, 125 g ai/ha): 60 | Plant response rating ([4]; Preemergence, 250 g ai/ha): 95 | Plant response rating ([4]; Preemergence, 500 g ai/ha): 100 | Plant response rating ([5]; Postemergence, 62 g ai/ha): 25 | Plant response rating ([5]; Postemergence, 250 g ai/ha): 80 | Plant response rating ([5]; Postemergence, 500 g ai/ha): 100 | Plant response rating ([5]; Preemergence, 62 g ai/ha): 0 | Plant response rating ([5]; Preemergence, 125 g ai/ha): 100 | Plant response rating ([5]; Preemergence, 250 g ai/ha): 100 | Plant response rating ([5]; Preemergence, 500 g ai/ha): 100
